What was measured:
[1] = system: tracheal airway epithelial cells; experiment: Post-polidocanol injury mouse tracheal histological time series; format: in vivo
Text: Intra-tracheal delivery of polidocanol was employed to ablate tracheal airway epithelial cells (see e.g., FIG. 9A). […] Am J Resp Cell Mol 24, 662-670; Engler et al. (2020). Cell Reports 33, 108553; the contents of which are incorporated herein by reference in their entireties. It is contemplated herein that acute epithelial sloughing can generate a temporarily exposed niche on the airway basement membrane for exogenous cells to land. To determine the time window for BC transplantation post polidocanol-mediated injury, tracheal tissues were analyzed in a time series following injury. […] Therefore, donor cells were transplanted five hours post-injury.
Adult recipient mice (8-16 weeks old) were used for all transplantation studies. Tracheal epithelial injury was induced in isoflurane anesthetized mice by intratracheal delivery of 20 μL of 2% polidocanol using the tongue pull method, followed by recovery prior to cell delivery 5-5.5 hours later. Specifically, the recipient animal was anesthetized with 3% isoflurane until the animal developed exaggerated respiratory movements at rates of 1-1.5 breath/second. Then the mouse was lightly restrained by operator, while a second operator delivered polidocanol solution directly into the posterior oropharynx of the mouse. The nose was gently held to encourage the animal to aspirate through the […], about 2-4 times, or until the liquid was no longer visible. For cell transplants, mice were re-anesthetized and 6×10^6 primary BCs or iBCs suspended in 20 μL of DMEM were intratracheally instilled as above.

[2] = system: tracheal airway epithelial cells; conditions: Borthwick et al. 2001; Engler et al. 2020; cited from earlier work

SMILES: CCCCCCCCCCCCOCCOCCOCCOCCOCCOCCOCCOCCOCCO [polidocanol]
- tracheal epithelium state after polidocanol exposure ([1]; 12 hours after polidocanol exposure): patches of rounded or cuboidal epithelial cells characterized the regenerating epithelium
- tracheal epithelial sloughing after polidocanol exposure ([1]; five hours after polidocanol exposure): epithelial sloughing was more complete with sporadic residual individual cells and more denuded basement membrane
- tracheal epithelium state after polidocanol exposure ([1]; seven hours after polidocanol exposure): residual cells had flattened to cover the basement membrane
- tracheal epithelial sloughing after polidocanol exposure ([1]; three hours after polidocanol exposure, 20 μL of 2% polidocanol intratracheal, H&E): Extensive epithelial sloughing
- time to tracheal epithelial sloughing after polidocanol exposure [2]: within three hours

Reference: patent US20250090597A1, “AIRWAY BASAL CELL ENGRAFTMENT METHODS” (TRUSTEES OF BOSTON UNIVERSITY, priority 2023, published 2025)
